# Results: the supplement of paper PMC10307832
# Experiments:
# Assay in all cases: relative viability (nuclei count vs DMSO), 5 days (fraction); higher = more cells survive
# [1] = compound: C1CSC2=C(C(=O)N1)SC3=C2C=C(C=C3)O [kb NB 142-70] + CC(=O)Nc1cccc(-n2c(=O)n(C3CC3)c(=O)c3c(Nc4ccc(I)cc4F)n(C)c(=O)c(C)c32)c1 [Trametinib] (partner 0.02 µM)
# Summary of the method: (§1)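 Values are medians from duplicate plates. Each reflects relative viability, defined as the nuclei count of treated wells over that of vehicle wells. Lung cancer cell lines in 1536-well plates were pin-tool dosed one day after seeding with one drug alone or with a fixed anchor-drug dose plus five library-drug doses (not always all listed) in √10 steps, then fixed, stained and imaged at 4× after 5 days.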
# [2] = compound: NCC(=O)Nc1ccc(-n2nc(C(F)(F)F)cc2-c2ccc3c(ccc4ccccc43)c2)cc1 + Cc1nc(Nc2ncc(C(=O)Nc3c(C)cccc3Cl)s2)cc(N2CCN(CCO)CC2)n1 [Dasatinib] (partner 0.075 µM)
# Summary of the method: as §1
# [3] = compound: NCC(=O)Nc1ccc(-n2nc(C(F)(F)F)cc2-c2ccc3c(ccc4ccccc43)c2)cc1 + O=C(c1cc(Cc2n[nH]c(=O)c3ccccc23)ccc1F)N1CCN(C(=O)C2CC2)CC1 [Olaparib] (partner 8 µM)
# Summary of the method: as §1
# kb NB 142-70 + Lapatinib = compound: C1CSC2=C(C(=O)N1)SC3=C2C=C(C=C3)O [kb NB 142-70] + CS(=O)(=O)CCNCc1ccc(-c2ccc3ncnc(Nc4ccc(OCc5cccc(F)c5)c(Cl)c4)c3c2)o1 [Lapatinib] (partner 2 µM)
# Summary of the method: as §1
# kb NB 142-70 + Foretinib = compound: C1CSC2=C(C(=O)N1)SC3=C2C=C(C=C3)O [kb NB 142-70] + COc1cc2c(Oc3ccc(NC(=O)C4(C(=O)Nc5ccc(F)cc5)CC4)cc3F)ccnc2cc1OCCCN1CCOCC1 [Foretinib] (partner 0.25 µM)
# Summary of the method: as §1
cell line,measurement,setting,value
UMC-11,relative viability,[1]; first compound 0.1 µM,0.668
same,relative viability,[1]; first compound 1 µM,0.735
same,relative viability,[1]; first compound 3.162 µM,0.464
same,relative viability,[2]; first compound 0.02 µM,0.426
same,relative viability,[2]; first compound 0.06325 µM,0.416
same,relative viability,[2]; first compound 0.2 µM,0.466
same,relative viability,[2]; first compound 0.6325 µM,0.432
same,relative viability,[2]; first compound 2 µM,0.42
same,relative viability,[3]; first compound 0.02 µM,0.307
same,relative viability,[3]; first compound 0.06325 µM,0.355
same,relative viability,[3]; first compound 0.2 µM,0.537
same,relative viability,[3]; first compound 0.6325 µM,0.354
same,relative viability,[3]; first compound 2 µM,0.377
same,relative viability,kb NB 142-70 + Lapatinib; first compound 0.1 µM,0.964
same,relative viability,kb NB 142-70 + Lapatinib; first compound 1 µM,0.836
same,relative viability,kb NB 142-70 + Lapatinib; first compound 3.162 µM,0.535
same,relative viability,kb NB 142-70 + Foretinib; first compound 0.1 µM,0.934
same,relative viability,kb NB 142-70 + Foretinib; first compound 1 µM,0.92
same,relative viability,kb NB 142-70 + Foretinib; first compound 3.162 µM,0.64
